pIC50: −log10 of the molar value.
Target: T1, ACAT 2 (Mus musculus, UniProt O88908)
T1 construct: The source of ACAT 2 enzyme used was a membrane fraction derived from mouse liver microsome; from tissue; host or cells: mouse liver (microsome fraction)
T1 sequence (O88908 1-525): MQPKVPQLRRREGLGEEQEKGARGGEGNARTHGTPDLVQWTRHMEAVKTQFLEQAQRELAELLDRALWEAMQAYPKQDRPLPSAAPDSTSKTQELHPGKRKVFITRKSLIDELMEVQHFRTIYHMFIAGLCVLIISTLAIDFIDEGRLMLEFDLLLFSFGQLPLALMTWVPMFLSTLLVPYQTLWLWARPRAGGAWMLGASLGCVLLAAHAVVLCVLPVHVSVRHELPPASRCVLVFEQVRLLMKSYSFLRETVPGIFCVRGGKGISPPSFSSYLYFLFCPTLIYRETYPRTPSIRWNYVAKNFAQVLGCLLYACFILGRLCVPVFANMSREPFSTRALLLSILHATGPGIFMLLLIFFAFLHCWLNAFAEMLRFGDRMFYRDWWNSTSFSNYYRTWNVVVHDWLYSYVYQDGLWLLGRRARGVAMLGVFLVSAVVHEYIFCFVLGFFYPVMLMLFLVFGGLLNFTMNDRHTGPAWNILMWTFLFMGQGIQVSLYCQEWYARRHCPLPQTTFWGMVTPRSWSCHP
Assay: ACAT-inhibiting activity, mouse liver microsome membrane fraction, [14C]oleoyl-CoA
Type: biochemical
Conditions: for pIC50: mouse liver microsome, 5 minutes at 37° C.; for Specific activity: (inhibitory activity of test compound)/(inhibitory activity of pyripyropene A): relative to pyripyropene A
Method: The source of ACAT 2 enzyme used was a membrane fraction derived from mouse liver microsome. Mouse liver was homogenized in buffer solution A (50 mM Tris-HCl (pH 7.8), 1 mM ethylenediamine tetraacetate, and 1 mM phenylmethanesulfonyl fluoride) using a homogenizer of the Potter type (Tokyo-RIKO). The homogenate was centrifuged at 12000×g, and the supernatant was ultracentrifuged at 100000×g. The sediment was taken as a microsome fraction, and this fraction was adjusted to have a protein concentration of 5 mg/ml using buffer solution A.
The chloroform layer was evaporated to dryness and was used to spot a thin layer chromatography plate (silica gel plate, Merck, 0.5 mm thickness). Elution for separation was carried out using a solvent of hexane/diethyl ether/acetic acid (70:30:1, v/v).

pIC50 | Specific activity: (inhibitory activity of test compound)/(inhibitory activity of pyripyropene A) | Structure (SMILES)
6.00 to 7.00 | + (5 > specific activity > 1) | CC(=O)OCC1(C)C2C[C@H](OC(=O)c3ccc(=O)oc3)[C@@]3(C)Oc4cc(-c5cccnc5)oc(=O)c4[C@H](O)C3[C@@]2(C)CC[C@@H]1OC(C)=O (some centres unmarked) [PRD 098, 7-O-2-pyrone-5-carboxyl-7-deacetylpyripyropene A]
> 8.00 | +++ (50 > specific activity > 10) | CC(=O)OCC1(C)C2C[C@H](OC(=O)c3ccc(Cl)cc3)[C@@]3(C)Oc4cc(-c5cccnc5)oc(=O)c4[C@H](O)C3[C@@]2(C)CC[C@@H]1OC(C)=O (some centres unmarked) [PRD 012, 7-p-chlorobenzoyl-7-deacetylpyripyropene A]
> 8.00 | +++ (50 > specific activity > 10) | CC(=O)OCC1(C)C2C[C@H](OC(=O)CCc3ccccc3)[C@@]3(C)Oc4cc(-c5cccnc5)oc(=O)c4[C@H](O)C3[C@@]2(C)CC[C@@H]1OC(C)=O (some centres unmarked) [PRD 100, 7-O-3-phenylpropionyl-7-deacetylpyripyropene A]
6.00 to 7.00 | + (5 > specific activity > 1) | CC(=O)OCC1(C)C2C[C@H](OC(=O)Cc3nnn[nH]3)[C@@]3(C)Oc4cc(-c5cccnc5)oc(=O)c4[C@H](O)C3[C@@]2(C)CC[C@@H]1OC(C)=O (some centres unmarked) [PRD 102, 7-O-(1H-tetrazol-5-yl)acetyl-7-deacetylpyripyropene A]
6.00 to 7.00 | + (5 > specific activity > 1) | CC(=O)OCC1(C)C2C[C@H](OC(=O)c3cnccn3)[C@@]3(C)Oc4cc(-c5cccnc5)oc(=O)c4[C@H](O)C3[C@@]2(C)CC[C@@H]1OC(C)=O (some centres unmarked) [PRD 096, 7-O-pyrazinecarboxyl-7-deacetylpyripyropene A]
7.00 to 8.00 | +++ (50 > specific activity > 10) | COc1ccc(C(=O)O[C@H]2CC3C4(C)COC(c5ccccc5)O[C@H]4CC[C@]3(C)C3[C@@H](O)c4c(cc(-c5cccnc5)oc4=O)O[C@@]32C)cc1 (some centres unmarked) [PRD 044, 1,11-O-benzylidene-7-O-p-methoxybenzoyl-1,7,11-trideacetylpyripyropene A]
> 8.00 | +++ (50 > specific activity > 10) | CC(=O)OCC1(C)C2C[C@H](OC(=O)c3ccc(Br)cc3F)[C@@]3(C)Oc4cc(-c5cccnc5)oc(=O)c4[C@H](O)C3[C@@]2(C)CC[C@@H]1OC(C)=O (some centres unmarked) [PRD 109, 7-O-p-bromo-o-fluorobenzoyl-7-deacetylpyripyropene A]
6.00 to 7.00 | + (5 > specific activity > 1) | CC(=O)OCC1(C)C2C[C@H](OC(=O)c3cc4ccccc4s3)[C@@]3(C)Oc4cc(-c5cccnc5)oc(=O)c4[C@H](O)C3[C@@]2(C)CC[C@@H]1OC(C)=O (some centres unmarked) [PRD 035, 7-benzo[b]thiophene-2-carboxyl-7-deacetylpyripyropene A]
6.00 to 7.00 | + (5 > specific activity > 1) | CC(=O)OCC1(C)C2C[C@H](OC(=O)Cn3cc(C)c(=O)[nH]c3=O)[C@@]3(C)Oc4cc(-c5cccnc5)oc(=O)c4[C@H](O)C3[C@@]2(C)CC[C@@H]1OC(C)=O (some centres unmarked) [PRD 090, 7-O-1-thymineacetyl-7-deacetylpyripyropene A]
> 8.00 | ++++ (100 > specific activity > 50) | CC(=O)OCC1(C)C2C[C@H](OC(=O)c3cccc(Br)c3)[C@@]3(C)Oc4cc(-c5cccnc5)oc(=O)c4[C@H](O)C3[C@@]2(C)CC[C@@H]1OC(C)=O (some centres unmarked) [PRD 026, 7-m-bromobenzoyl-7-deacetylpyripyropene A]
6.00 to 7.00 | + (5 > specific activity > 1) | CC(=O)OCC1(C)C2C[C@H](OC(=O)c3ccccc3C#N)[C@@]3(C)Oc4cc(-c5cccnc5)oc(=O)c4[C@H](O)C3[C@@]2(C)CC[C@@H]1OC(C)=O (some centres unmarked) [PRD 015, 7-o-cyanobenzoyl-7-deacetylpyripyropene A]
6.00 to 7.00 | + (5 > specific activity > 1) | CC(=O)OCC1(C)C2C[C@@H](N=[N+]=[N-])[C@@]3(C)Oc4cc(-c5cccnc5)oc(=O)c4[C@H](O)C3[C@@]2(C)CC[C@@H]1OC(C)=O (stereo partly drawn) [PRD 062, 7-(R)-azide-7-(S)-deacetylpyripyropene A]
– | +++ (50 > specific activity > 10) | CC(=O)OCC1(C)C2C[C@H](OC(=O)c3ccc(Br)cc3)[C@@]3(C)Oc4cc(-c5cccnc5)oc(=O)c4[C@H](O)C3[C@@]2(C)CC[C@@H]1OC(C)=O (some centres unmarked) [PRD 019, 7-p-bromobenzoyl-7-deacetylpyripyropene A]
7.00 to 8.00 | +++ (50 > specific activity > 10) | COc1ccc(CCC(=O)O[C@H]2CC3C(C)(COC(C)=O)[C@@H](OC(C)=O)CC[C@]3(C)C3[C@@H](O)c4c(cc(-c5cccnc5)oc4=O)O[C@@]32C)cc1 (some centres unmarked) [PRD 084, 7-O-3-(4-methoxyphenyl)propionyl-7-deacetylpyripyropene A]
> 8.00 | +++ (50 > specific activity > 10) | CC(=O)OCC1(C)C2C[C@H](OC(=O)C34CC5CC(CC(C5)C3)C4)[C@@]3(C)Oc4cc(-c5cccnc5)oc(=O)c4[C@H](O)C3[C@@]2(C)CC[C@@H]1OC(C)=O (some centres unmarked) [PRD 022, 7-1-adamantanecarboxyl-7-deacetylpyripyropene A]
– | +++ (50 > specific activity > 10) | CC(=O)OCC1(C)C(OC(C)=O)CCC2(C)C1CC(OC(=O)c1ccccc1I)C1(C)Oc3cc(-c4cccnc4)oc(=O)c3C(O)C21 (centres unmarked) [PRD 004, 7-o-iodobenzoyl-7-deacetylpyripyropene A]
> 8.00 | +++ (50 > specific activity > 10) | COc1ccc(CCCC(=O)O[C@H]2CC3C(C)(COC(C)=O)[C@@H](OC(C)=O)CC[C@]3(C)C3[C@@H](O)c4c(cc(-c5cccnc5)oc4=O)O[C@@]32C)cc1 (some centres unmarked) [PRD 103, 7-O-4-(4-methoxyphenyl)butytyl-7-deacetylpyripyropene A]
6.00 to 7.00 | + (5 > specific activity > 1) | CC(=O)OCC1(C)C2C[C@H](OC(=O)c3ccc(N)cc3)[C@@]3(C)Oc4cc(-c5cccnc5)oc(=O)c4[C@H](O)C3[C@@]2(C)CC[C@@H]1OC(C)=O (some centres unmarked) [PRD 032, 7-p-aminobenzoyl-7-deacetylpyripyropene A]
7.00 to 8.00 | +++ (50 > specific activity > 10) | COc1cccc(C(=O)O[C@H]2CC3C4(C)COC(c5ccccc5)O[C@H]4CC[C@]3(C)C3[C@@H](O)c4c(cc(-c5cccnc5)oc4=O)O[C@@]32C)c1 (some centres unmarked) [PRD 043, 1,11-O-benzylidene-7-O-m-methoxybenzoyl-1,7,11-trideacetylpyripyropene A]
7.00 to 8.00 | +++ (50 > specific activity > 10) | CC12COC(c3ccccc3)O[C@H]1CC[C@@]1(C)C2C[C@H](OC(=O)c2cccc(F)c2)[C@@]2(C)Oc3cc(-c4cccnc4)oc(=O)c3[C@H](O)C12 (some centres unmarked) [PRD 047, 1,11-O-benzylidene-7-O-m-fluorobenzoyl-1,7,11-trideacetylpyripyropene A]
